These results are taken from ChEMBL document CHEMBL3352722, “Calcitonin gene-related peptide receptor antagonists: new therapeutic agents for migraine” (J Med Chem, 2014).

For experiment [1], the species on record is Homo sapiens. Put plainly: Antimigraine activity in migraine patient assessed as pain relief incidence at 100 mg after 2 hrs (reference value: 51.2%). Type of experiment: functional.
The species entered for experiment [2] is Homo sapiens. Put plainly: Antimigraine activity in migraine patient assessed as pain freedom incidence at 100 mg after 2 hrs (reference value: 15.3%). Type of experiment: functional.
The species entered for experiment [3] is Homo sapiens. Put plainly: Antimigraine activity in migraine patient assessed as pain relief incidence at 40 mg after 2 hrs (reference value: 18.6%). Type of experiment: functional.
The species named for experiment [4] is Homo sapiens. Put plainly: Antimigraine activity in migraine patient assessed as pain freedom incidence at 40 mg after 2 hrs (reference value: 8.6%). Type of experiment: functional.
Experiment [5] deals with Calcitonin gene-related peptide type 1 receptor (Homo sapiens, UniProt O60894+Q16602). Put plainly: Antagonist activity against human CGRP receptor.
In experiment [6] the test system is Homo sapiens. Put plainly: In vivo receptor occupancy at CGRP receptor in human brain at 140 mg using […]-labeled compound. Type of experiment: functional.
In experiment [7] the test system is Homo sapiens. Put plainly: In vivo receptor occupancy at CGRP receptor in human brain at 1120 mg using […]-labeled compound. The class given is functional.
Experiment [8] is filed under the species Homo sapiens. Put plainly: Antimigraine activity in migraine patient assessed as response rate for pain freedom at 50 mg after 2 hrs. The class given is functional.
For experiment [9], the species on record is Homo sapiens. Put plainly: Antimigraine activity in migraine patient assessed as response rate for pain freedom at 50 to 400 mg after 2 hrs. Type of experiment: functional.
Experiment [10] is filed under the species Homo sapiens. Put plainly: Antimigraine activity in migraine patient assessed as response rate for pain freedom at 200 mg after 2 hrs. The class given is functional.
The species entered for experiment [11] is Homo sapiens. Put plainly: Antimigraine activity in migraine patient assessed as response rate for pain freedom at 400 mg after 2 hrs. Type of experiment: functional.
The species named for experiment [12] is Homo sapiens. Put plainly: Antimigraine activity in migraine patient assessed as pain freedom incidence at 200 mg after 2 hrs (reference value: 8.6%). Type of experiment: functional.
The species named for experiment [13] is Homo sapiens. Put plainly: Antimigraine activity in migraine patient assessed as pain relief incidence at 200 mg after 2 hrs (reference value: 18.6%). Type of experiment: functional.
The species named for experiment [14] is Homo sapiens. Put plainly: Antimigraine activity in migraine patient assessed as pain relief incidence at 400 mg after 2 hrs (reference value: 18.6%). The class given is functional.
For experiment [15], the species on record is Homo sapiens. Put plainly: Antimigraine activity in migraine patient assessed as pain freedom incidence at 400 mg after 2 hrs (reference value: 8.6%). Type of experiment: functional.

Each structure is given as a SMILES string.

Sequence of Calcitonin gene-related peptide type 1 receptor (Q16602 whole entry, one chain of several): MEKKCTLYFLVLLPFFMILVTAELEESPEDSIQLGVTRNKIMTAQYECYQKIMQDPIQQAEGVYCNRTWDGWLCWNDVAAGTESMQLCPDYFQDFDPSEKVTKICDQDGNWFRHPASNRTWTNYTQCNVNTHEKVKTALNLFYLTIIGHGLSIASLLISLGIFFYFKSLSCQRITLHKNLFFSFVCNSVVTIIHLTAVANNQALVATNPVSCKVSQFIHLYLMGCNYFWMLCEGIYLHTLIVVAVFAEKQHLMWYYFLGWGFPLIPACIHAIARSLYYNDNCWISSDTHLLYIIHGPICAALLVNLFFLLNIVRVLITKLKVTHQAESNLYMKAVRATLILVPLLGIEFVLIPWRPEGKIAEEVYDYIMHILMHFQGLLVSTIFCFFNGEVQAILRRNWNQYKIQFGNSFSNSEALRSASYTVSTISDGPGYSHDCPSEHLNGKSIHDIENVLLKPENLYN

For `CNS(=O)(=O)Cc1ccc2[nH]cc(CCN(C)C)c2c1`, the Activity amounted to 72% in the experiment filed under Homo sapiens [1] and 35% in the experiment listed under Homo sapiens [2].

Consider `CN1CCC[C@@H]1Cc1c[nH]c2ccc(CCS(=O)(=O)c3ccccc3)cc12`, for which the Activity in the experiment listed under Homo sapiens [3] turned out to be 56.5%; in the experiment filed under Homo sapiens [4] it was 34.8%.

With `NCCCC[C@H](NC(=O)[C@@H](Cc1cc(Br)c(O)c(Br)c1)NC(=O)CCCc1ccccc1)C(=O)NCCc1ccccc1`, the half-maximal inhibitory concentration (IC50) in experiment [5] was found to be 17000 nM.

`NCCCC[C@H](NC(=O)[C@@H](Cc1cc(Br)c(O)c(Br)c1)NC(=O)N1CCC(n2c(=O)oc3ccccc32)CC1)C(=O)N1CCN(c2ccncc2)CC1`: the IC50 in experiment [5] was determined as 44 nM.

With `C[C@@]1(c2cc(F)cc(F)c2)CN([11CH3])C2(CCCC2)C(=O)N1CC(=O)Nc1ccc2c(c1)C[C@@]1(C2)C(=O)Nc2ncccc21`, the Occ entry in the experiment on Homo sapiens [6] is “<=10%”; in the experiment on Homo sapiens [7] it was 43%.

As to `Cc1cc(C[C@@H](OC(=O)N2CCC(N3CCc4ccccc4NC3=O)CC2)C(=O)N2CCC(N3CCOCC3)CC2)cc(C)c1O` [BI-44370], the Activity in the experiment listed under Homo sapiens [8] is given as 7.8%; in the experiment listed under Homo sapiens [9], 34.8%; in the experiment filed under Homo sapiens [10], 21.5%; in the experiment filed under Homo sapiens [11], 27.4%; in the experiment listed under Homo sapiens [12], 21.5%; in the experiment filed under Homo sapiens [13], 50.8%. The Activity is recorded as 56.2% in the experiment filed under Homo sapiens [14] and 27.4% in the experiment listed under Homo sapiens [15]. Besides, the Ki in [5] was 0.3 nM.
